{"source": "patent US6630570B1", "about": "“Short-chain peptide-dye conjugates as contrast media for optical diagnosis” (priority 1999, dated 2003)", "key": {"HT29-tumor": {"tested_on": "HT29-tumor", "assay": "In-vivo fluorescence imaging in tumor-carrying nude mice, HT29 tumor", "conditions": "0.1 μmol/kg intravenously, one hour after administration", "description": "The imaging properties of the compounds according to the invention were studied in vivo after injection into tumor-carrying nude mice. […] The fluorescence of the substances was excited by irradiation of animals with near-infrared light of wavelength 640 nm (indodicarbocyanines) or 740 nm (indotricarbocyanines), which was produced with an Nd:YAG laser. The fluorescence radiation was detected at a wavelength of >700 nm or >800 nm by an intensified CCD-camera, and the fluorescence images were stored digitally."}, "RIN38-VIP1-cells": {"tested_on": "RIN38-VIP1-cells", "assay": "Cell imaging by fluorescence microscopy, RIN38-VIP1 cells", "format": "cell-based, rat", "conditions": "10 μM", "procedure": "(§1) The binding and imaging of the compounds according to the invention were studied in vitro in human tumor cells, and the receptors for vaso-active intestinal peptide and/or somatostatin and/or neurotensin were expressed. To this end, 5×10^5 tumor cells were incubated in 1.5 ml of medium, which contained the test substance. Different concentrations of the substances (10 nM-10 μM) were used, and the incubation period varied (1 minute-24 hours). After the incubation, the cells were set, and microscopic preparations were produced. The evaluation was carried out on a Zeiss Axiovert 135-fluorescence microscope, which was equipped with a Cy7-(Exciter HQ 710/70 nm, emitter 810/90 nm, beam splitter 750 nm LP), Cy5-(exciter 575-625 nm, emitter 660-710 nm BP, beam splitter 645 nm) and Cy3-filter set (exciter 546/12 nm, emitter 590 nm LP, beam splitter 580 nm). From all preparations, white light and fluorescence images were recorded with a CCD-camera (Visitron RTE/CCD-576) and digitally stored."}, "HT29 cells": {"tested_on": "HT29 cells", "assay": "Cell imaging by fluorescence microscopy, HT29 cells", "format": "cell-based, human", "conditions": "10 μM, 30 minutes of incubation, Cy7-filter set", "procedure": "as §1"}}, "note": "Entries after “also recorded” stand apart in the source; their conditions may differ. No end group written: not given here.", "data": [{"substance": "(ξ-Amino-indotricarbocyanine)-Lys^25-VIP (14-25)-conjugate (RKQMAVKKYLNK(indotricarbocyanine)) [conjugate 24]", "values": [{"measurement": "increase in fluorescence intensity in the tumor relative to the contralateral flank", "setting": "HT29-tumor; HT29 tumor in right rear flank", "value": "~1.5", "unit": "fold"}, {"measurement": "fluorescence outside the tumor (remainder of the body, kidneys)", "setting": "HT29-tumor; HT29 tumor mouse", "value": "increased fluorescence signal in the kidneys"}, {"measurement": "fluorescence image of the cells (pattern, correlation with white light image)", "setting": "RIN38-VIP1-cells; Cy7-filter set", "value": "homogeneous, intracellular near-nucleus fluorescence"}]}, {"substance": "Indocarbocyanine-VIP (1-28)-conjugate (HSDAVFTDNYTRLRKQMAVKKYLNSILN; ends and bridges not checked; also: indocarbocyanine conjugate, position not given here) [conjugate 14]", "values": [{"measurement": "fluorescence image of the cells (pattern)", "setting": "RIN38-VIP1-cells; Cy3-filter set", "value": "intracellular fluorescence areas with a vesicular pattern in the membrane area of the cell"}]}, {"substance": "Indotricarbocyanine-D-VIP (14-24)-conjugate (RKQMAVKKYLN; not fully specified; also: indotricarbocyanine dye conjugate, attachment site not given here) [conjugate 25]", "values": [{"measurement": "fluorescence image of the cells (pattern, correlation with white light image)", "setting": "HT29 cells", "value": "Fluorescence dispersed homogeneously over the cells, good correlation with the white light image"}]}, {"substance": "Indotricarbocyanine-VIP (1-28)-conjugate (HSDAVFTDNYTRLRKQMAVKKYLNSILN; ends and bridges not checked; also: indotricarbocyanine conjugate, position not given here) [conjugate 16]", "values": [{"measurement": "fluorescence image of the cells (pattern, correlation with white light image)", "setting": "HT29 cells", "value": "largely homogeneous fluorescence dispersed over the cells; also recorded: areas of increased signals were visible, which can be associated with vesicular compartments"}]}]}
